Experimental data published in PMC6426982, “Anti-alcohol abuse drug disulfiram inhibits human PHGDH via disruption of its active tetrameric form through a specific cysteine oxidation” (Scientific Reports, 2019).
Numbering of substitutions follows the chain as printed. Read-outs that look alike come from different tables or passages of the source.

Experiments:
[1] = target: T1, human PHGDH (wild type) (Homo sapiens, UniProt O43175); experiment: PHGDH isolated enzyme inhibition assay (NADH fluorescence), wild type; type: biochemical
T1 construct: peptides including 12 out of the 13 Cys residues of the full length PHGDH could be identified and tracked; made in house; host or cells: Escherichia coli BL21
T1 sequence (O43175 1-533): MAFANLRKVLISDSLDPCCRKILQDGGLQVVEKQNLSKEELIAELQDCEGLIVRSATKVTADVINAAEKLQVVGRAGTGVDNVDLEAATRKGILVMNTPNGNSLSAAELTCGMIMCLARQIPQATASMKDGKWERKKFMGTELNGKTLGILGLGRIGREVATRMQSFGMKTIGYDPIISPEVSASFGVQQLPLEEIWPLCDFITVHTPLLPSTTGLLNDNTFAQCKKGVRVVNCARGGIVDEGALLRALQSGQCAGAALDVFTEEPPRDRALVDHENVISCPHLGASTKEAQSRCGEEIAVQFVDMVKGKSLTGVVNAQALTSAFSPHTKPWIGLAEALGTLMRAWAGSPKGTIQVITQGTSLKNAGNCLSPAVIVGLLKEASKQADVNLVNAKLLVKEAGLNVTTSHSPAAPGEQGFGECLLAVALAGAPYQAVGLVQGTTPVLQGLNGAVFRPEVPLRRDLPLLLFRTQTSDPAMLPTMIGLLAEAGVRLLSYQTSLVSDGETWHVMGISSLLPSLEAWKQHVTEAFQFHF
Method: Enzymatic assay was adapted from a previously described procedure. […] Assays were performed in PHGDH assay buffer (50 mM Tris, pH 8.5, and 1 mM EDTA). […] The final concentration of DMSO in the assay mixture was set to 5%.
pET28a human PHGDH and pET28a human C116S PHGDH were transformed into BL21 Escherichia coli. A single colony was grown to an OD600 0.6 in 1 L of Luria broth. Protein expression was induced with 1 mM isopropyl thiogalactopyranoside (IPTG). […] Pellets were resuspended in 60 mL of lysis buffer (50 mM Tris, pH 8.5, 10 mM MgCl2, 300 mM NaCl, 10% glycerol, 5 mM imidazole) and sonicated, and cell debris were pelleted by centrifugation (20,000 × g, 30 min). The supernatant was collected and purified using Akta purifier on HisTrap^TM FF column (GE Healthcare). […] Fraction protein content was measured via a Bradford assay. […] Protein purity was assessed via SDS/PAGE and Coomassie staining.

[2] = target: T2, human PHGDH C116S mutant (Homo sapiens, UniProt O43175, C116S); experiment: PHGDH enzyme inhibition assay, C116S mutant; type: biochemical
T2 construct: peptides including 12 out of the 13 Cys residues of the full length PHGDH could be identified and tracked; made in house; host or cells: Escherichia coli BL21
T2 sequence (O43175 1-533 C116S): T1 sequence (O43175 1-533) with C116S
Method: (§1) Enzymatic assay was adapted from a previously described procedure. NADH fluorescence emission (Ex 340 nm/Em 460 nm) was followed over time. Assays were performed in PHGDH assay buffer (50 mM Tris, pH 8.5, and 1 mM EDTA). Substrates and enzyme concentrations were as follows: 3-PG, 240 μM; NAD^+, 120 μM; glutamate, 30 mM; PHGDH, 12 ng/μL; PSAT1, 20 ng/μL. The final concentration of DMSO in the assay mixture was set to 5%.
pET28a human PHGDH and pET28a human C116S PHGDH were transformed into BL21 Escherichia coli. A single colony was grown to an OD600 0.6 in 1 L of Luria broth. Protein expression was induced with 1 mM isopropyl thiogalactopyranoside (IPTG). The culture was chilled on ice for 30 min, cultured for 18 h at room temperature and pelleted (6,000 g, 20 min). Pellets were resuspended in 60 mL of lysis buffer (50 mM Tris, pH 8.5, 10 mM MgCl2, 300 mM NaCl, 10% glycerol, 5 mM imidazole) and sonicated, and cell debris were pelleted by centrifugation (20,000 × g, 30 min). The supernatant was collected and purified using Akta purifier on HisTrap^TM FF column (GE Healthcare). […] Fraction protein content was measured via a Bradford assay. […] Protein purity was assessed via SDS/PAGE and Coomassie staining.

[3] = target: T3, PHGDH (Homo sapiens, UniProt O43175); experiment: Incubation assay (time-dependent PHGDH inhibition); type: biochemical; conditions: DSF 50 µM, 45 min incubation, 37 °C, Fig. 1A; read-out: PHGDH inhibition after incubation
T3 construct: peptides including 12 out of the 13 Cys residues of the full length PHGDH could be identified and tracked; made in house; host or cells: Escherichia coli BL21
T3 sequence (O43175 1-533): T1 sequence (O43175 1-533)
Method: (§2) Figure 1 Characterization of PHGDH inhibition by DSF. Residual activity percentage of PHGDH (A) upon incubation with DSF (50 µM) for the indicated times and (B) after the rapid dilution assay experiment with DSF (50 µM). All experiments values were performed in triplicates at each compound dilution and error bars show the standard deviation. Data were collected at 37 °C with a PHGDH concentration of 12 ng/µL in 50 mM Tris and 1 mM EDTA at pH 8.5.
as §1

[4] = target: T3, PHGDH; experiment: Rapid dilution assay; type: biochemical; conditions: DSF 50 µM (Fig. 1B)
Method: as §2
Dilution experiment was conducted following a reported procedure. DSF (5 μM) or DMSO control was incubated with PHGDH for 45 min at 37 °C. Undiluted DSF (5 μM) was included as a positive control for inhibition.

[5] = system: UM-UC-3-PHGDH+ cells; experiment: Cell proliferation inhibition (Presto Blue), PHGDH-expressing cells; type: cell-based, human
Method: (§3) UM-UC-3 (PHGDH+ and PHGDH-) bladder cancer cells were purchased from the ATCC and cultured in DMEM medium supplemented with 10% heat-inactivated Fetal Bovine Serum (FBS) and 1% penicillin/streptomycin. Cells were seeded at 2500 cells/well in 96-well plates in serine depleted media (MEM). DSF or vehicle (DSMO) was added and cells were grown for 48 hours. Viability was assessed using Presto Blue reagent (Life Technologies) according to manufacturer’s instructions.

[6] = system: UM-UC-3-PHGDH- cells; experiment: Cell proliferation inhibition (Presto Blue), cells not expressing PHGDH; type: cell-based; conditions: Homo sapiens, UMUC3, serine depleted media, 48 hours
Method: as §3

[7] = target: T3, PHGDH; experiment: Cross-linking experiment with BS3 (oligomeric state); conditions: DSF 1-500 µM, 30 min, BS3 cross-linker
Method: PHGDH (3 μg) was incubated with DSF (1 µM, 5 µM, 10 µM, 50 μM, 100 μM, 250 µM, 500 μM) or vehicle control (DMSO) in 25 mM HEPES, pH 7.3, and 1 mM NAD^+ in 18 μL total volume for 30 min on ice. BS3 (S5799; Sigma) cross-linker dissolved in PBS was added to a final concentration of 5 mM and incubated for 30 min under shaking at room temperature. The reaction was then quenched for 15 min by adding 1 M Tris, pH 7.5, to a final concentration of 28 mM. Cross-linked proteins were mixed with sample buffer, boiled for 5 min, and run on SDS/PAGE. Gels were stained with Gelcode blue stain reagent (24592; Thermo) overnight and destained according to the manufacturer’s instructions.

[8] = target: T4, PHGDH cysteine residues (Homo sapiens, UniProt O43175); experiment: nanoUHPLC/MS of tryptic PHGDH peptides after DSF treatment (cysteine modification)
T4 construct: peptides including 12 out of the 13 Cys residues of the full length PHGDH could be identified and tracked; made in house; host or cells: Escherichia coli BL21
T4 sequence (O43175 1-533): T1 sequence (O43175 1-533)
Method: To unambiguously confirm this hypothesis and possibly identify the cysteine residues involved in this interaction, mass spectrometry experiments were undertaken. Briefly, PHGDH was incubated for 30 min with various concentrations of disulfiram (0.1x IC50, 1x IC50 and 10x IC50). At the end of the incubation, chloroacetamide was added and incubated 15′ in large excess in order to block the remaining free cysteines residues for the following analysis. The protein was separated from the medium (removal of the remaining chloroacetamide and DSF by liquid/liquid extraction with CHCl3/H2O) followed by trypsinization and analysis of the peptides by nanoUHPLC/MS.
Mass spectrometry experiments were carried out on an Orbitrap Lumos, following a previously reported procedure, with some modifications. A local protein database containing the human PHGDH sequence (accession Uniprot O43175) was used to process the obtained MS/MS data. Mass error was set to 15 ppm for precursor ions and 0.6 Da for fragment ions. Oxidation on Met; disulfiram, (+147.025 Da) and carbamidomethyl (+57.021 Da) were considered as variable modifications on Cys.

[9] = target: T1, human PHGDH (wild type); parameters: method as in PMID 28085281; conditions: drug screening campaign in the authors' lab; cited from earlier work
[10] = cited from earlier work

## CCN(CC)C(=S)SSC(=S)N(CC)CC [DSF, bis(diethylthiocarbamoyl) disulfide]
[1]; Wild Type PHGDH, Table 2, read-out: PHGDH inhibition (IC50)
  IC50: 590 nM
[1]; purified PHGDH, triplicates, Table 1, read-out: PHGDH inhibition (IC50)
  IC50: 590 nM
[1]; with Triton X 0.01%, Fig. S1B, read-out: IC50 on PHGDH WT
  IC50: 490 nM
[1]; without Triton X, Fig. S1A, read-out: IC50 on PHGDH WT
  IC50: 530 nM
[2]
  decrease in inhibitory potency on C116S mutant versus wild type enzyme: 20 fold
[2]; C116S mutant, Table 2
  IC50: 10200 nM
[3]
  inhibition at 50 µM: 100%
[4]
  PHGDH activity after rapid dilution of the enzyme/inhibitor complex: not restored
[5]; Homo sapiens, UMUC3, 48 h, UM-UC-3 +PHGDH, serine depleted media, 48 hours
  IC50: 775 nM
[5]; UM-UC-3-PHGDH- versus UM-UC-3-PHGDH+
  difference in proliferation IC50 between PHGDH- and PHGDH+ cells: ~ 5 fold
[6]
  IC50: 3640 nM
[7]
  oligomeric state of PHGDH after DSF treatment: concentration-dependent shift from the tetrameric to the dimeric, and to a lesser extent to the monomeric, form
[8]; DSF 0.05 µM, peptide 91-119
  Percentage of modified peptides, C111: 4.87%
  Percentage of modified peptides, C116: 9.75%
[8]; DSF 0.05 µM, peptide 92-119
  Percentage of modified peptides, C111: 1.92%
  Percentage of modified peptides, C116: 7.69%
[8]; DSF 0.5 µM, peptide 91-119 (Ox M)
  Percentage of modified peptides, C116: 7.14%
[8]; DSF 0.5 µM, peptide 92-119
  Percentage of modified peptides, C111: 6.67%
  Percentage of modified peptides, C116: 46.67%
[8]; DSF 5 µM, peptide 91-119
  Percentage of modified peptides, C111: 4.16%
  Percentage of modified peptides, C116: 50.00%
[8]; DSF 5 µM, peptide 92-119
  Percentage of modified peptides, C111: 10.34%
  Percentage of modified peptides, C116: 39.65%
[8]; DSF 5 µM, peptide 271-289
  Percentage of modified peptides, C281: 1.26%
[9]
  IC50: 590 nM
[10]; reported, read-out: maximum plasma concentration (Cmax)
  Cmax: 1280 nM
[10]; single-dose administration of 250 mg of DSF
  elimination half-life: 7.3 h

## CCN(CC)C(=S)[S][Cu][S]C(=S)N(CC)CC [CuET, bis(diethyldithiocarbamate)–copper]
[1]; wild type PHGDH 12 ng/µL, 37 °C, pH 8.5, Fig. 2, read-out: PHGDH inhibition (IC50)
  IC50: ~10000 nM
[1]; wtPHGDH
  fold weaker IC50 compared to DSF: about 16 fold
